Each compound was assayed on E. faecalis (CL 4877) (assay: Zone of inhibition screen, 96 well agar array format). Conditions: zone of inhibition relative to 1 mg/ml p-chlorobiphenylvancomycin.
Format: cell-based
Parameters: scale not given here
Description: The antibacterial activity of each of the compounds against the bacterial strains E. faceium (ATCC 49624), S. epidermidis (ATCC 12228), S. aureus (ATCC 29213), E. faecalis (CL 4877) and E. faecalis (ATCC 292121) was tested. Each of the compounds was screened in a 96 will agar array format.
For `CC1OC(OC2C(Oc3c4cc5cc3Oc3ccc(cc3Cl)C(O)C3NC(=O)C(NC(=O)C5NC(=O)C(CC(N)=O)NC(=O)C(NC(=O)c5cccnc5)C(O)c5ccc(c(Cl)c5)O4)c4ccc(O)c(c4)-c4c(O)cc(O)cc4C(C(=O)O)NC3=O)OC(CO)C(O)C2O)CC(C)(NCc2ccc(-c3ccc(Cl)cc3)cc2)C1O` (stereo not drawn) [Compound 307], the “zone score, E. faecalis CL 4877” value was 2.
For `CCC(=O)C(=O)NC1C(=O)NC(CC(N)=O)C(=O)NC2C(=O)NC3C(=O)NC(C(=O)NC(C(=O)O)c4cc(O)cc(O)c4-c4cc3ccc4O)C(O)c3ccc(c(Cl)c3)Oc3cc2cc(c3OC2OC(CO)C(O)C(O)C2OC2CC(C)(NCc3ccc(-c4ccc(Cl)cc4)cc3)C(O)C(C)O2)Oc2ccc(cc2Cl)C1O` (stereo not drawn) [Compound 242], the “zone score, E. faecalis CL 4877” value was 2.
With `CC1OC(OC2C(Oc3c4cc5cc3Oc3ccc(cc3Cl)C(O)C3NC(=O)C(NC(=O)C5NC(=O)C(CC(N)=O)NC(=O)C(NC(=O)c5ccccc5O)C(O)c5ccc(c(Cl)c5)O4)c4ccc(O)c(c4)-c4c(O)cc(O)cc4C(C(=O)O)NC3=O)OC(CO)C(O)C2O)CC(C)(NCc2ccc(-c3ccc(Cl)cc3)cc2)C1O` (stereo not drawn) [Compound 315] the “zone score, E. faecalis CL 4877” value was 2.
`CC1OC(OC2C(Oc3c4cc5cc3Oc3ccc(cc3Cl)C(O)C3NC(=O)C(NC(=O)C5NC(=O)C(CC(N)=O)NC(=O)C(NC(=O)CC(F)(F)F)C(O)c5ccc(c(Cl)c5)O4)c4ccc(O)c(c4)-c4c(O)cc(O)cc4C(C(=O)O)NC3=O)OC(CO)C(O)C2O)CC(C)(NCc2ccc(-c3ccc(Cl)cc3)cc2)C1O` (stereo not drawn) [Compound 249] was tested, and the “zone score, E. faecalis CL 4877” value was 2.

Same assay, conditions: zone of inhibition relative to 1 mg/ml stock solution of p-chlorobiphenylvancomycin
In the case of `CC(=O)CC(=O)NCC(=O)N[C@H]1C(=O)N[C@@H](CC(N)=O)C(=O)N[C@H]2C(=O)NC3C(=O)N[C@H](C(=O)N[C@@H](C(=O)O)c4cc(O)cc(O)c4-c4cc3ccc4O)[C@H](O)c3ccc(c(Cl)c3)Oc3cc2cc(c3OC2OC(CO)C(O)C(O)C2OC2CC(C)(NCc3ccc(-c4ccc(Cl)cc4)cc3)C(O)C(C)O2)Oc2ccc(cc2Cl)[C@H]1O` (stereo partly drawn) [Compound 172], the “zone score, E. faecalis CL 4877” value is reported as 2.
`C=C(NC(C)=O)C(=O)NC1C(=O)NC(CC(N)=O)C(=O)NC2C(=O)NC3C(=O)NC(C(=O)NC(C(=O)O)c4cc(O)cc(O)c4-c4cc3ccc4O)C(O)c3ccc(c(Cl)c3)Oc3cc2cc(c3OC2OC(CO)C(O)C(O)C2OC2CC(C)(NCc3ccc(-c4ccc(Cl)cc4)cc3)C(O)C(C)O2)Oc2ccc(cc2Cl)C1O` (stereo not drawn) [Compound 102] was tested, and the “zone score, E. faecalis CL 4877” value was 2.
With `CC(=O)NCSC(C)(C)C(N)C(=O)NC1C(=O)NC(CC(N)=O)C(=O)NC2C(=O)NC3C(=O)NC(C(=O)NC(C(=O)O)c4cc(O)cc(O)c4-c4cc3ccc4O)C(O)c3ccc(c(Cl)c3)Oc3cc2cc(c3OC2OC(CO)C(O)C(O)C2OC2CC(C)(NCc3ccc(-c4ccc(Cl)cc4)cc3)C(O)C(C)O2)Oc2ccc(cc2Cl)C1O` (stereo not drawn) [Compound 46] the “zone score, E. faecalis CL 4877” value was 2.
For `CC1OC(OC2C(Oc3c4cc5cc3Oc3ccc(cc3Cl)C(O)C(NC(=O)C(O)C3OC(=O)C(O)C3O)C(=O)NC(CC(N)=O)C(=O)NC5C(=O)NC3C(=O)NC(C(=O)NC(C(=O)O)c5cc(O)cc(O)c5-c5cc3ccc5O)C(O)c3ccc(c(Cl)c3)O4)OC(CO)C(O)C2O)CC(C)(NCc2ccc(-c3ccc(Cl)cc3)cc2)C1O` (stereo not drawn) [Compound 155], the “zone score, E. faecalis CL 4877” value was 2.
`CC1OC(OC2C(Oc3c4cc5cc3Oc3ccc(cc3Cl)C(O)C3NC(=O)C(NC(=O)C5NC(=O)C(CC(N)=O)NC(=O)C(NC(=O)C=O)C(O)c5ccc(c(Cl)c5)O4)c4ccc(O)c(c4)-c4c(O)cc(O)cc4C(C(=O)O)NC3=O)OC(CO)C(O)C2O)CC(C)(NCc2ccc(-c3ccc(Cl)cc3)cc2)C1O` (stereo not drawn) [Compound 159] was tested, and the “zone score, E. faecalis CL 4877” value was 2.
`CC(=O)NC(CCCNC(=N)N)C(=O)NC1C(=O)NC(CC(N)=O)C(=O)NC2C(=O)NC3C(=O)NC(C(=O)NC(C(=O)O)c4cc(O)cc(O)c4-c4cc3ccc4O)C(O)c3ccc(c(Cl)c3)Oc3cc2cc(c3OC2OC(CO)C(O)C(O)C2OC2CC(C)(NCc3ccc(-c4ccc(Cl)cc4)cc3)C(O)C(C)O2)Oc2ccc(cc2Cl)C1O` (stereo not drawn) [Compound 184] was tested, and the “zone score, E. faecalis CL 4877” value was 2.
`C[C@H]1O[C@H](O[C@H]2[C@H](Oc3c4cc5cc3Oc3ccc(cc3Cl)[C@@H](O)[C@@H](NC(=O)[C@@H](N)CC(=O)NC(c3ccccc3)(c3ccccc3)c3ccccc3)C(=O)N[C@@H](CC(N)=O)C(=O)N[C@H]5C(=O)N[C@H]3C(=O)N[C@H](C(=O)N[C@@H](C(=O)O)c5cc(O)cc(O)c5-c5cc3ccc5O)[C@H](O)c3ccc(c(Cl)c3)O4)O[C@H](CO)[C@@H](O)[C@@H]2O)C[C@@](C)(NCc2ccc(-c3ccc(Cl)cc3)cc2)[C@H]1O` [Compound 2] was tested, and the “zone score, E. faecalis CL 4877” value was 2.
For `CC(=O)NC(CO)C(=O)NC1C(=O)NC(CC(N)=O)C(=O)NC2C(=O)NC3C(=O)NC(C(=O)NC(C(=O)O)c4cc(O)cc(O)c4-c4cc3ccc4O)C(O)c3ccc(c(Cl)c3)Oc3cc2cc(c3OC2OC(CO)C(O)C(O)C2OC2CC(C)(NCc3ccc(-c4ccc(Cl)cc4)cc3)C(O)C(C)O2)Oc2ccc(cc2Cl)C1O` (mixture of isomers) [Compound 178], the “zone score, E. faecalis CL 4877” value was 2.
`CC(=O)NC(C(=O)NC1C(=O)NC(CC(N)=O)C(=O)NC2C(=O)NC3C(=O)NC(C(=O)NC(C(=O)O)c4cc(O)cc(O)c4-c4cc3ccc4O)C(O)c3ccc(c(Cl)c3)Oc3cc2cc(c3OC2OC(CO)C(O)C(O)C2OC2CC(C)(NCc3ccc(-c4ccc(Cl)cc4)cc3)C(O)C(C)O2)Oc2ccc(cc2Cl)C1O)C(C)O` (stereo not drawn) [Compound 125] was tested, and the “zone score, E. faecalis CL 4877” value was 2.
For `CC(N)C(=O)NC1C(=O)NC(CC(N)=O)C(=O)NC2C(=O)NC3C(=O)NC(C(=O)NC(C(=O)O)c4cc(O)cc(O)c4-c4cc3ccc4O)C(O)c3ccc(c(Cl)c3)Oc3cc2cc(c3OC2OC(CO)C(O)C(O)C2OC2CC(C)(NCc3ccc(-c4ccc(Cl)cc4)cc3)C(O)C(C)O2)Oc2ccc(cc2Cl)C1O` (stereo not drawn) [Compound 51], the “zone score, E. faecalis CL 4877” value was 2.
For `CC1OC(OC2C(Oc3c4cc5cc3Oc3ccc(cc3Cl)C(O)C3NC(=O)C(NC(=O)C5NC(=O)C(CC(N)=O)NC(=O)C(NC(=O)CNC(=O)CNC(=O)OC(C)(C)C)C(O)c5ccc(c(Cl)c5)O4)c4ccc(O)c(c4)-c4c(O)cc(O)cc4C(C(=O)O)NC3=O)OC(CO)C(O)C2O)CC(C)(NCc2ccc(-c3ccc(Cl)cc3)cc2)C1O` (stereo not drawn) [Compound 140], the “zone score, E. faecalis CL 4877” value was 2.
In the case of `CC1OC(OC2C(Oc3c4cc5cc3Oc3ccc(cc3Cl)C(O)C3NC(=O)C(NC(=O)C5NC(=O)C(CC(N)=O)NC(=O)C(NC(=O)C(O)CO)C(O)c5ccc(c(Cl)c5)O4)c4ccc(O)c(c4)-c4c(O)cc(O)cc4C(C(=O)O)NC3=O)OC(CO)C(O)C2O)CC(C)(NCc2ccc(-c3ccc(Cl)cc3)cc2)C1O` (mixture of isomers) [Compound 152], the “zone score, E. faecalis CL 4877” value is reported as 2.
`CC1OC(OC2C(Oc3c4cc5cc3Oc3ccc(cc3Cl)C(O)C3NC(=O)C(NC(=O)C5NC(=O)C(CC(N)=O)NC(=O)C(NC(=O)C(Cc5c[nH]cn5)NC(N)=O)C(O)c5ccc(c(Cl)c5)O4)c4ccc(O)c(c4)-c4c(O)cc(O)cc4C(C(=O)O)NC3=O)OC(CO)C(O)C2O)CC(C)(NCc2ccc(-c3ccc(Cl)cc3)cc2)C1O` (stereo not drawn) [Compound 192] was tested, and the “zone score, E. faecalis CL 4877” value was 2.
With `CC1OC(OC2C(Oc3c4cc5cc3Oc3ccc(cc3Cl)C(O)C3NC(=O)C(NC(=O)C5NC(=O)C(CC(N)=O)NC(=O)C(NC(=O)C(NC(N)=O)NC(N)=O)C(O)c5ccc(c(Cl)c5)O4)c4ccc(O)c(c4)-c4c(O)cc(O)cc4C(C(=O)O)NC3=O)OC(CO)C(O)C2O)CC(C)(NCc2ccc(-c3ccc(Cl)cc3)cc2)C1O` (stereo not drawn) [Compound 126] the “zone score, E. faecalis CL 4877” value was 2.

— patent US6518243B1, “Desleucyl glycopeptide antibiotics and methods of making same” (Trustees of Princeton University, priority 1999, dated 2003)
